This is an account of results in ChEMBL document CHEMBL5550200, “Back-Pocket Optimization of 2-Aminopyrimidine-Based Macrocycles Leads to Potent EPHA2/GAK Kinase Inhibitors” (J Med Chem, 2024).

One experiment has as its target Ephrin type-A receptor 4 (Homo sapiens, UniProt P54764). The experiment is described as follows: Induction of stabilization of recombinant EPHA4 (unknown origin) assessed as change in melting temperature by differential scanning fluorimetry assay. (In general: Differential scanning fluorimetry follows unfolding on heating by fluorescence.)
The target in experiment [1] is Ephrin type-A receptor 7 (Homo sapiens) (UniProt Q15375). The experiment is described as follows: Induction of stabilization of recombinant EPHA7 (unknown origin) assessed as change in melting temperature by differential scanning fluorimetry assay.
Sequence of Ephrin type-A receptor 7 (Homo sapiens) (Q15375 28-998 limits assumed): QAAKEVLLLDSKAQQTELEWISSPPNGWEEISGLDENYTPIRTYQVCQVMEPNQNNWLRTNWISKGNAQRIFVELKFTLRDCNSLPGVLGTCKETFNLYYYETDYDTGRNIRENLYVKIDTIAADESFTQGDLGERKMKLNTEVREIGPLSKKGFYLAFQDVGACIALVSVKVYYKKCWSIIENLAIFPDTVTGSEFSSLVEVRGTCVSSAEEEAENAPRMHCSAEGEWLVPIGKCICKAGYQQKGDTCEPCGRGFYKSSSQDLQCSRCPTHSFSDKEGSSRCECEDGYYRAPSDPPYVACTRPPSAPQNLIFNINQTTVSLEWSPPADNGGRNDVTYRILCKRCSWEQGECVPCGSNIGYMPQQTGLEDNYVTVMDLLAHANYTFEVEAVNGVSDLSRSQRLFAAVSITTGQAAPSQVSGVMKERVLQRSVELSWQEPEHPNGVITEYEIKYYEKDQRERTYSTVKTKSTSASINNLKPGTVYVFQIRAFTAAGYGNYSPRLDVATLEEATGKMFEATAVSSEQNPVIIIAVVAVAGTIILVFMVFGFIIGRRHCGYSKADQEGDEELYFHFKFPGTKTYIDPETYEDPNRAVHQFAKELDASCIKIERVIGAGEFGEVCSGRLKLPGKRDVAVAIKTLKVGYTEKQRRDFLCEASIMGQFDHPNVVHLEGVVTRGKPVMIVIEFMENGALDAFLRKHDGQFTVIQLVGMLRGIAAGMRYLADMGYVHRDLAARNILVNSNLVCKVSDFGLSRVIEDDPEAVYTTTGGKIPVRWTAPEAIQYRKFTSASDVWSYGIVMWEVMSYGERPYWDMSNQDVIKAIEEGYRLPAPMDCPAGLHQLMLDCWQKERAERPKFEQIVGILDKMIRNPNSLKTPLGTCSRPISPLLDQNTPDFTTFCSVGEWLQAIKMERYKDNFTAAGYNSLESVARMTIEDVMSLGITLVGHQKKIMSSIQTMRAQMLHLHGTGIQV
In experiment [2] the target is T1, Ephrin type-B receptor 1 (Homo sapiens) (UniProt P54762).
T1 sequence (whole entry): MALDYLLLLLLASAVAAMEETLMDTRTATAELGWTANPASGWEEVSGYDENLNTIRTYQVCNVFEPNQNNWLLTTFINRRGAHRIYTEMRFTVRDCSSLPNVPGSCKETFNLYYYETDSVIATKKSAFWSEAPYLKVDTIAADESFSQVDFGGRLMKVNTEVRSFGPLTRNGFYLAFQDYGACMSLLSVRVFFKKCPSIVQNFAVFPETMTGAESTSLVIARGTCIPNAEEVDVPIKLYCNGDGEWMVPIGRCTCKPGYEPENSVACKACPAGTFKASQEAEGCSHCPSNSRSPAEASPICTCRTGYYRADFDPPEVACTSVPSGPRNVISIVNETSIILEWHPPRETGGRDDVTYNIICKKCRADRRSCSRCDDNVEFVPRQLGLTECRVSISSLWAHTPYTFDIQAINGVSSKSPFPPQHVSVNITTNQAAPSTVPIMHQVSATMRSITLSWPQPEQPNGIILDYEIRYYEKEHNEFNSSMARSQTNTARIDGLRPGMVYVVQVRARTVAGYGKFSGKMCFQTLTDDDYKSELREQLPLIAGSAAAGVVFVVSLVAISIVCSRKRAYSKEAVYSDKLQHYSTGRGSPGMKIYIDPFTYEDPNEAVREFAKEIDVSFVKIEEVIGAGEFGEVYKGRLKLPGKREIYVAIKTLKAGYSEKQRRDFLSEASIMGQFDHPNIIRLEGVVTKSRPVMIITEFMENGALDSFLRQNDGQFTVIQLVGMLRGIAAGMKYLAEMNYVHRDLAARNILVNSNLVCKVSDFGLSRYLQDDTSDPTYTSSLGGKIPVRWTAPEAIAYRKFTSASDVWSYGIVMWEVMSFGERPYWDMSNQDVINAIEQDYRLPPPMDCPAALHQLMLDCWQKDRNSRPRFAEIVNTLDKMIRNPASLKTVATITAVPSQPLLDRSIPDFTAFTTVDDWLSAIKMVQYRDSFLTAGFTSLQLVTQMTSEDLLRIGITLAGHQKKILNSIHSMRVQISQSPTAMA
The experiment is described as follows: Induction of stabilization of recombinant EPHB1 (unknown origin) assessed as change in melting temperature by differential scanning fluorimetry assay.

The target of experiment [3] is T2, Ephrin type-B receptor 3 (Homo sapiens) (UniProt P54753).
T2 sequence (whole entry): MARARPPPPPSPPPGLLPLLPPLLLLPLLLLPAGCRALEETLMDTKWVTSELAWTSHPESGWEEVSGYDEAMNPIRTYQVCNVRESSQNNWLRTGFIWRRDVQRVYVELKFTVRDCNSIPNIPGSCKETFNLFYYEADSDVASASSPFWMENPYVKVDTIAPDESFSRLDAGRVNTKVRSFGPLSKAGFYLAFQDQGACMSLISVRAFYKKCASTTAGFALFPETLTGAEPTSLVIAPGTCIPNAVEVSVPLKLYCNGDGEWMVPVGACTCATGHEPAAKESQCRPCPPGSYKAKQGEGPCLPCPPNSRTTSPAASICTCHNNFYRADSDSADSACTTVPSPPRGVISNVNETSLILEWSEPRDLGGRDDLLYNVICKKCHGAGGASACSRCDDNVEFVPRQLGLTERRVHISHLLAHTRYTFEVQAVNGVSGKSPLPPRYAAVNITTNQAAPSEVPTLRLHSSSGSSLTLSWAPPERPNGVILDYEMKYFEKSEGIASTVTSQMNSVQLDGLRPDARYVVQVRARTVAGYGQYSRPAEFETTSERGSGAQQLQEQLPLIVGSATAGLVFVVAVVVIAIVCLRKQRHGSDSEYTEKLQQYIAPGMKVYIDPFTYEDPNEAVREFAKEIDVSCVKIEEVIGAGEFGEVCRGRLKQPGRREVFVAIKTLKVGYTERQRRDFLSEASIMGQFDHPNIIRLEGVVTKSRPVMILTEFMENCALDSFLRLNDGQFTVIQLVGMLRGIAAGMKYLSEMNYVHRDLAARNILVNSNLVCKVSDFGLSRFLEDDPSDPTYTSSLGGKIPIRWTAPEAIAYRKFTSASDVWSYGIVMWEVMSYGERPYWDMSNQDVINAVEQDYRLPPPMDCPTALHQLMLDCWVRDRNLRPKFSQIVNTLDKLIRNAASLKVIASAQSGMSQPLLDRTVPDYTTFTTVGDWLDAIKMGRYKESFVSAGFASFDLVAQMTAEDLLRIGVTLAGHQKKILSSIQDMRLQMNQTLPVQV
The experiment can be described thus: Induction of stabilization of recombinant EPHB3 (unknown origin) assessed as change in melting temperature by differential scanning fluorimetry assay.

Experiment [4] has as its target Vascular endothelial growth factor receptor 1 (Homo sapiens, UniProt P17948). The experiment is described as follows: Induction of stabilization of recombinant FLT1 (unknown origin) assessed as change in melting temperature by differential scanning fluorimetry assay.
The target in the next experiment is Ephrin type-A receptor 2 (Homo sapiens, UniProt P29317).
Sequence of Ephrin type-A receptor 2 (P29317 whole entry): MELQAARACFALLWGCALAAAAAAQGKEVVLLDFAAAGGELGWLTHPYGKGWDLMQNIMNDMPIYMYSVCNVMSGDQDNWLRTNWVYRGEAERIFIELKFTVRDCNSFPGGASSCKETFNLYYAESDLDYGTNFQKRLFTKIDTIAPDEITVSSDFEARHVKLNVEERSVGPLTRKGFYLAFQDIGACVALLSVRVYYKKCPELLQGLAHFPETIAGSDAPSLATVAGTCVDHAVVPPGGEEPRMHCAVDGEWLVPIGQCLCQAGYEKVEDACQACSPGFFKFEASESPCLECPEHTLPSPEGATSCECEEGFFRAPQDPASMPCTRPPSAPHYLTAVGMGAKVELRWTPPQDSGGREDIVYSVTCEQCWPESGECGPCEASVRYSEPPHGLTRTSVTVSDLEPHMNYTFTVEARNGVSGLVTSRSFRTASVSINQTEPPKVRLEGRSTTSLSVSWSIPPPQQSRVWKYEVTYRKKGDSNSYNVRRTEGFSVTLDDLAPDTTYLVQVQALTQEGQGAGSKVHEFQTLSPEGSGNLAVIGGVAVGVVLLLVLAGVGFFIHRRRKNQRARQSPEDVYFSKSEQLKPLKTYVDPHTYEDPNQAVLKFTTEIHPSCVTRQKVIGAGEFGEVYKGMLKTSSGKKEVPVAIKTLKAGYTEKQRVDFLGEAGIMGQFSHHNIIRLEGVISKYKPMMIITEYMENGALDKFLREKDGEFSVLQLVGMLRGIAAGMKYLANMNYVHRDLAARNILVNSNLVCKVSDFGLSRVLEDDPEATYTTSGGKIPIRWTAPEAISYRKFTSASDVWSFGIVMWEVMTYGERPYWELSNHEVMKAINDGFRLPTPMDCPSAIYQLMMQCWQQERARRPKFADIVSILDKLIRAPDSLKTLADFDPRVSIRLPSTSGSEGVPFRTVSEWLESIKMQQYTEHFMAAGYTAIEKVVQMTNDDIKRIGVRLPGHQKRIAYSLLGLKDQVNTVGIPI
Experiment [5] concerns the target Ephrin type-A receptor 5 (Homo sapiens) (UniProt P54756).
Description: Induction of stabilization of recombinant EPHA5 (unknown origin) assessed as change in melting temperature by differential scanning fluorimetry assay
In experiment [6] the target is Fibroblast growth factor receptor 1 (Homo sapiens, UniProt P11362).
Description: Induction of stabilization of recombinant FGFR1 (unknown origin) assessed as change in melting temperature by differential scanning fluorimetry assay
Experiment [7] deals with Fibroblast growth factor receptor 2 (Homo sapiens) (UniProt P21802).
Sequence of Fibroblast growth factor receptor 2 (Homo sapiens) (P21802 22-821 limits assumed): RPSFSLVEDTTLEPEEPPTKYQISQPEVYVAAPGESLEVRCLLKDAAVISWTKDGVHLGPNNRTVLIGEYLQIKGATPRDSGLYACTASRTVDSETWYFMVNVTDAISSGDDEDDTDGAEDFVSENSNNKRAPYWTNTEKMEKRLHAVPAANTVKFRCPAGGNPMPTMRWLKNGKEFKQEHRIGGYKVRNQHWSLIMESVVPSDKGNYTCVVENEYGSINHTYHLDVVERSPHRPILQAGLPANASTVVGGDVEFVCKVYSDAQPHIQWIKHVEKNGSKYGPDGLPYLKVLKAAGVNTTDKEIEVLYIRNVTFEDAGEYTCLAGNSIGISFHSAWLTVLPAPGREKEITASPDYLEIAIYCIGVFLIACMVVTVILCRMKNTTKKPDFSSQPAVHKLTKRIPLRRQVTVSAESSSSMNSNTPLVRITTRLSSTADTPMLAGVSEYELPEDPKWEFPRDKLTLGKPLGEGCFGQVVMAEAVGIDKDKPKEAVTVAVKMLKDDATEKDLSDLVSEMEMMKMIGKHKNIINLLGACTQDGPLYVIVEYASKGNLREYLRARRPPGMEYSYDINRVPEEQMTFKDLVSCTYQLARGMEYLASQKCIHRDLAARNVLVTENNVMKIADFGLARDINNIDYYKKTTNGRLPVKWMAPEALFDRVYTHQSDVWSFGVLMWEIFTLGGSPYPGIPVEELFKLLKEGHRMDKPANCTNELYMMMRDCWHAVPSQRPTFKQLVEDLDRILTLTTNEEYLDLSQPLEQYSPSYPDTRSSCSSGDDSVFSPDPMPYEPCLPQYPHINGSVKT
Description: Induction of stabilization of recombinant FGFR2 (unknown origin) assessed as change in melting temperature by differential scanning fluorimetry assay
The target in experiment [8] is T3, Cyclin-G-associated kinase (Homo sapiens) (UniProt O14976).
T3 sequence (whole entry): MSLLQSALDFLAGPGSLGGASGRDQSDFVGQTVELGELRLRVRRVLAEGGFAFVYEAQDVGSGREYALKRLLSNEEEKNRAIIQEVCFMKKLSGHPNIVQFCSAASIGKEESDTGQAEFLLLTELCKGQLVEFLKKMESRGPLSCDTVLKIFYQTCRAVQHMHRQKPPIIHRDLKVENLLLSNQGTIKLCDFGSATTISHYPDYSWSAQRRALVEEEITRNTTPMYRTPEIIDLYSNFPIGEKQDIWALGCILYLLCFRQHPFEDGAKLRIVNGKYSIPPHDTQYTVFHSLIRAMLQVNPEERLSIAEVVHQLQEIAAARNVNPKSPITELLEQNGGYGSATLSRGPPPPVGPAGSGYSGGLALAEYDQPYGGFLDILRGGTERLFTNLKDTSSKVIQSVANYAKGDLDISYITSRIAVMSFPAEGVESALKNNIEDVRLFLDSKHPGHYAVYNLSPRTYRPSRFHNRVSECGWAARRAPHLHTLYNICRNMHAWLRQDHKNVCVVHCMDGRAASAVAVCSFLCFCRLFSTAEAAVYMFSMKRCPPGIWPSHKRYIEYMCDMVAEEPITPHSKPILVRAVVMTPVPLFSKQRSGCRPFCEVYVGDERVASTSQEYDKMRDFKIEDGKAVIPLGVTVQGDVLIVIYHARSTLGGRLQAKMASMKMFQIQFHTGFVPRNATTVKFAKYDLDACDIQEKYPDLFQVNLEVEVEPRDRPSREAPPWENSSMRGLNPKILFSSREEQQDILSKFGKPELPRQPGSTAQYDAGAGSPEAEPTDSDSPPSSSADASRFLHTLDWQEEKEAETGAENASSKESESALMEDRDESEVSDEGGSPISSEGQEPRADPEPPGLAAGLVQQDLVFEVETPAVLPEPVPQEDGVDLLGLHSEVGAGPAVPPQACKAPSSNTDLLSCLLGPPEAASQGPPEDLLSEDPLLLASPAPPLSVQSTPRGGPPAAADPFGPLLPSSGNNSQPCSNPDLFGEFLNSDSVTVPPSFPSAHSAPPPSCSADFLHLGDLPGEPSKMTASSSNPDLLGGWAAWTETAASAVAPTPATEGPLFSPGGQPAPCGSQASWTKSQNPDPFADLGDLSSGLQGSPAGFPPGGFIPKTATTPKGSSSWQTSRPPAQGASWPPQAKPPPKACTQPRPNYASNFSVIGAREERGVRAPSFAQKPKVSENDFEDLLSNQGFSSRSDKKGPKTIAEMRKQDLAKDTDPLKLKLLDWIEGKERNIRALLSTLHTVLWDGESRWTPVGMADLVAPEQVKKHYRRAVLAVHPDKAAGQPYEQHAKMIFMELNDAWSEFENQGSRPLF
Description: Induction of stabilization of recombinant GAK (unknown origin) assessed as change in melting temperature by differential scanning fluorimetry assay

Sequence of Ephrin type-A receptor 4 (P54764 whole entry): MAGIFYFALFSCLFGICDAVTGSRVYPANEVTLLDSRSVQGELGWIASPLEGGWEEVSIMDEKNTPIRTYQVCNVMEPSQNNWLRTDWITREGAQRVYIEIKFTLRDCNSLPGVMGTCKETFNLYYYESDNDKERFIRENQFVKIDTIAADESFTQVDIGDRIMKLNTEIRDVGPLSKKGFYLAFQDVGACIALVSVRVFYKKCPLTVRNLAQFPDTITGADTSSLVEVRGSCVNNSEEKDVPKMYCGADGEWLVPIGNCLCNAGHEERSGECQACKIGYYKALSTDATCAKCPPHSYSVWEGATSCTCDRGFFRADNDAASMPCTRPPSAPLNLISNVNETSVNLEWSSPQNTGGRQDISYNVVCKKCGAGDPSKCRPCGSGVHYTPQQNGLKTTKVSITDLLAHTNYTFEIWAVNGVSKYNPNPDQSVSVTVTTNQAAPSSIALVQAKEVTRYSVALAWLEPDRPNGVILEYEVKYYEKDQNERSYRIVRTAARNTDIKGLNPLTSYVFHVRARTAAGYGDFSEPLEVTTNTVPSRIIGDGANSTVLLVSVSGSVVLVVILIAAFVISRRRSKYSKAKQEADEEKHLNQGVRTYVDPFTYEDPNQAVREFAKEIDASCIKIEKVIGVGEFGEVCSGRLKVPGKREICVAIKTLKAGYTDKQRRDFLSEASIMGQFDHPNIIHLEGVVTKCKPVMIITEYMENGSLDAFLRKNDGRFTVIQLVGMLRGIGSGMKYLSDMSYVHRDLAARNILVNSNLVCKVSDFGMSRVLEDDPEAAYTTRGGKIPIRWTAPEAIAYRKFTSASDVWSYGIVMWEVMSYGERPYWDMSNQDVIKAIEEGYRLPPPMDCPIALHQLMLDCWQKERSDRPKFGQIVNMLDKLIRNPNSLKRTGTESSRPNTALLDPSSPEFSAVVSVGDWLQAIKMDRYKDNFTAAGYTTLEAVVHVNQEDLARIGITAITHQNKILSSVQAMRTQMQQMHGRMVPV
Sequence of Vascular endothelial growth factor receptor 1 (P17948 whole entry): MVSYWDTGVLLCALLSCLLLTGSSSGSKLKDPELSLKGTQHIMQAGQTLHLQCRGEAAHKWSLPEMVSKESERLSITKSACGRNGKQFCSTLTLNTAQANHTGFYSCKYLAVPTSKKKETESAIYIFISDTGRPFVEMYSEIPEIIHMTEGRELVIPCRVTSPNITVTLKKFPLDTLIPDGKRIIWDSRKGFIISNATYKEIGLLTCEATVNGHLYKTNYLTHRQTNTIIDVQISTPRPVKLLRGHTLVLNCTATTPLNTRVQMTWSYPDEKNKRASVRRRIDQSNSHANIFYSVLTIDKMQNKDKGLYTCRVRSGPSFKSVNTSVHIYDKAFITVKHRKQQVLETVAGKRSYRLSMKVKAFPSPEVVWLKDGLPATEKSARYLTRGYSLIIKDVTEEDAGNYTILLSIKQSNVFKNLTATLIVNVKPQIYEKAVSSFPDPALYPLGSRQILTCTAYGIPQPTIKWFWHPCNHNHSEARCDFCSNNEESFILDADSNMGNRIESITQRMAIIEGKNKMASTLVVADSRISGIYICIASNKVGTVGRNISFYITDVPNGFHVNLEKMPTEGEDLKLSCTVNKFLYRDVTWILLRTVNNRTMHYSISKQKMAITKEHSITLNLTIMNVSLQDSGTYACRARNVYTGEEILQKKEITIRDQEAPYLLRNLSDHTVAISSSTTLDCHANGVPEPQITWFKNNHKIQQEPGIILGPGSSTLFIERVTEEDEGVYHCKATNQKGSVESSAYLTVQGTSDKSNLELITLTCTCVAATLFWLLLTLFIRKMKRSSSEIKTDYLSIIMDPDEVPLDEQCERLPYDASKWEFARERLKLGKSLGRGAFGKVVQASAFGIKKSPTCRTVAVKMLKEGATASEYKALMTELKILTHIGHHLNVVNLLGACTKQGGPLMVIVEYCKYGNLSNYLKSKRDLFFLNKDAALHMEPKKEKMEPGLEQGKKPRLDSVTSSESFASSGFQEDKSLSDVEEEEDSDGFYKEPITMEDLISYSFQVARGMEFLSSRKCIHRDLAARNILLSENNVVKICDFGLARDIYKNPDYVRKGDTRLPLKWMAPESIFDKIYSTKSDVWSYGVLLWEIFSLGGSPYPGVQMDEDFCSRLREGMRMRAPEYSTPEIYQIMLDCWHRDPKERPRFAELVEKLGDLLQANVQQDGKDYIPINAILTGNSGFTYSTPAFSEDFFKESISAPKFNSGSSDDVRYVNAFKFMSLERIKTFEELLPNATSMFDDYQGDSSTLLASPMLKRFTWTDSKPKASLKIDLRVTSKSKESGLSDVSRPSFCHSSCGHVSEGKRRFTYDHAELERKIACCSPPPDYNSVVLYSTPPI
Description for Ephrin type-A receptor 2: Induction of stabilization of recombinant EPHA2 (D596 to G900 residues) (unknown origin) expressed in Escherichia coli rosetta BL21(D3)-R3-pRARE2 competent cells assessed as change in melting temperature by differential scanning fluorimetry assay

On to `COc1cc(-c2cnc3nc2NCCCNS(=O)(=O)c2cc(ccc2Cl)N3)ccc1F`, for which the deltaTm worked out at 5.1 K at Ephrin type-A receptor 4; 1.6 K in experiment [1]; 2.5 K in experiment [2]; 1.6 K in experiment [3]; 2.4 K in experiment [4]; 6.3 K at Ephrin type-A receptor 2. The deltaTm in experiment [5] is 5 K; in experiment [6], 1.9 K; in experiment [7], 3.6 K; in experiment [8] it was 8.1 K.

For the compound `Nc1cc(-c2cnc3nc2NCCCNS(=O)(=O)c2cccc(c2)N3)ccc1F`, the deltaTm is 4.4 K on Ephrin type-A receptor 4; 0.2 K in experiment [1]; 3.6 K in experiment [2]; 1.7 K in experiment [3]; 4.9 K in experiment [4]; 7.7 K at Ephrin type-A receptor 2. Besides, the deltaTm in [5] came to 4.6 K; in experiment [6] it was 2.2 K; in experiment [7], 4.6 K; in experiment [8], 6 K.

For the compound `COc1cc(-c2cnc3nc2NCCCNS(=O)(=O)c2cccc(c2)N3)ccc1Cl`, the deltaTm came to 4.1 K on Ephrin type-A receptor 4; 2.1 K in experiment [1]; 0.9 K in experiment [2]; 4.7 K in [3]; 5.2 K in experiment [4]; 7.7 K on Ephrin type-A receptor 2. Moreover, the deltaTm was 4.9 K in experiment [5], 3.3 K in experiment [6], 3.8 K in experiment [7] and 7.1 K in experiment [8].

In the case of `CSc1cc(-c2cnc3nc2NCCCNS(=O)(=O)c2cccc(c2)N3)ccc1F`, the deltaTm on Ephrin type-A receptor 4 is 3.4 K; in experiment [1], 2 K; in experiment [2], 3 K; in experiment [3] it was 4.3 K; in [4], 4.7 K; at Ephrin type-A receptor 2, 6.9 K. Also, the deltaTm in experiment [5] is 4.3 K; in [6] it was 3.3 K; in experiment [7] it was 4.1 K; in experiment [8] it was 7.8 K.

In the case of `O=S1(=O)NCCCNc2nc(ncc2-c2ccc(F)c(Cl)c2)Nc2cccc1c2`, the deltaTm at Ephrin type-A receptor 4 was 4.6 K; in experiment [1] it was -1.5 K; in experiment [2], 5.3 K; in [3] it was 4.3 K; in experiment [4], 7.5 K; on Ephrin type-A receptor 2 it was 9.2 K. Also, the deltaTm was found to be 5.7 K in experiment [5], 3.8 K in experiment [6], 5.5 K in [7] and 6.3 K in experiment [8].

For the compound `O=S1(=O)NCCCNc2nc(ncc2-c2cc(Cl)c(Cl)cc2F)Nc2cccc1c2`, the deltaTm at Ephrin type-A receptor 4 is 3.8 K; in experiment [1], 0.4 K; in [2] it was 3.5 K; in experiment [3] it was 5.4 K; in experiment [4] it was 5.4 K; at Ephrin type-A receptor 2, 9.5 K. Also, the deltaTm in experiment [5] was found to be 5.6 K; in experiment [6] it was 4.5 K; in experiment [7] it was 5.7 K; in [8], 6.5 K.

For `COc1cc(-c2cnc3nc2NCCCNS(=O)(=O)c2cc(ccc2OCCN2CCOCC2)N3)ccc1F`, the deltaTm at Ephrin type-A receptor 4 came out at 3.7 K; in [1], 1 K; in experiment [2], 4.2 K; in [3] it was 4.8 K; in experiment [4], 3 K; on Ephrin type-A receptor 2, 6.9 K. Besides, the deltaTm worked out at 4.6 K in experiment [5], 2.1 K in [6], 3.2 K in [7] and 9 K in experiment [8].

With `COC(=O)COc1ccc2cc1S(=O)(=O)NCCCNc1nc(ncc1-c1ccc(F)c(OC)c1)N2`, the deltaTm at Ephrin type-A receptor 4 is 1.6 K; in experiment [1], 0.4 K; in experiment [2], 1 K; in [3] it was 1.4 K; in experiment [4] it was 0.3 K; on Ephrin type-A receptor 2, 2.4 K. The deltaTm was found to be 2.3 K in experiment [5], 0.5 K in experiment [6], 1.3 K in experiment [7] and 3.7 K in [8].
